Test results from PubChem BioAssay (NCI).
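Interpolation was linear, between the two tested concentrations surrounding the appropriate level; five concentrations were tested over 48 hours in 96-well plates. Abbreviation: GI50, concentration required for 50% inhibition of growth. Definition used: TGI = concentration required for complete inhibition of growth.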

Columns and labels:
Assay in all cases: growth of human tumour cells (NCI), 48 h
RXF 393 renal = test system: RXF 393 renal
MOLT-4 leukemia = test system: MOLT-4 leukemia
MDA-MB-435 = test system: MDA-MB-435
SNB-75 CNS = test system: SNB-75 CNS
TK-10 renal = test system: TK-10 renal
HL-60(TB) leukemia = test system: HL-60(TB) leukemia
NCI-H226 lung = test system: NCI-H226 lung
T-47D breast = test system: T-47D breast
LOX IMVI melanoma = test system: LOX IMVI melanoma
SF-539 CNS = test system: SF-539 CNS
UACC-257 melanoma = test system: UACC-257 melanoma
OVCAR-5 ovarian = test system: OVCAR-5 ovarian
RPMI-8226 leukemia = test system: RPMI-8226 leukemia
K-562 leukemia = test system: K-562 leukemia
MALME-3M melanoma = test system: MALME-3M melanoma
ACHN renal = test system: ACHN renal
EKVX NSCLC = test system: EKVX NSCLC
BT-549 breast = test system: BT-549 breast
SK-MEL-2 melanoma = test system: SK-MEL-2 melanoma
CAKI-1 renal = test system: CAKI-1 renal
SF-268 CNS = test system: SF-268 CNS
DU-145 prostate = test system: DU-145 prostate
SNB-19 CNS = test system: SNB-19 CNS
A498 renal = test system: A498 renal
NCI-H522 lung = test system: NCI-H522 lung
SK-MEL-5 melanoma = test system: SK-MEL-5 melanoma
SK-MEL-28 melanoma = test system: SK-MEL-28 melanoma
NCI-H23 lung = test system: NCI-H23 lung
OVCAR-3 ovarian = test system: OVCAR-3 ovarian
U251 CNS = test system: U251 CNS
786-0 renal = test system: 786-0 renal
A549 NSCLC = test system: A549 NSCLC
HOP-62 NSCLC = test system: HOP-62 NSCLC
SR leukemia = test system: SR leukemia
UACC-62 melanoma = test system: UACC-62 melanoma
HCT-116 colon = test system: HCT-116 colon
SF-295 CNS = test system: SF-295 CNS
PC-3 prostate = test system: PC-3 prostate
HOP-92 NSCLC = test system: HOP-92 NSCLC
HS 578T breast = test system: HS 578T breast
NCI/ADR-RES ovarian = test system: NCI/ADR-RES ovarian
HCT-15 colon = test system: HCT-15 colon
SW-620 colon = test system: SW-620 colon
CCRF-CEM leukemia = test system: CCRF-CEM leukemia
OVCAR-8 ovarian = test system: OVCAR-8 ovarian
KM12 colon = test system: KM12 colon
SN12C renal = test system: SN12C renal
UO-31 renal = test system: UO-31 renal
IGROV1 ovarian = test system: IGROV1 ovarian
COLO 205 colon = test system: COLO 205 colon
MDA-MB-231 breast = test system: MDA-MB-231 breast
MCF7 breast = test system: MCF7 breast
SK-OV-3 ovarian = test system: SK-OV-3 ovarian
NCI-H460 lung = test system: NCI-H460 lung
HCC-2998 colon = test system: HCC-2998 colon
HT29 colon = test system: HT29 colon
M14 melanoma = test system: M14 melanoma
OVCAR-4 ovarian = test system: OVCAR-4 ovarian

CCOC(=O)c1ccc2c(c1)[n+](=O)c(C(=O)C1CCCS1)c(C(F)(F)F)n2[O-] (stereo unspecified)
GI50 (RXF 393 renal): 603 nM | TGI (RXF 393 renal): 1860 nM | GI50 (MOLT-4 leukemia): 237 nM | TGI (MOLT-4 leukemia): 519 nM | GI50 (MDA-MB-435): 330 nM | TGI (MDA-MB-435): 987 nM | GI50 (SNB-75 CNS): 1130 nM | TGI (SNB-75 CNS): 2330 nM | GI50 (TK-10 renal): 288 nM | TGI (TK-10 renal): 765 nM | GI50 (HL-60(TB) leukemia): 258 nM | TGI (HL-60(TB) leukemia): 643 nM | GI50 (NCI-H226 lung): 835 nM | TGI (NCI-H226 lung): 2650 nM | GI50 (T-47D breast): 493 nM | TGI (T-47D breast): 1920 nM | GI50 (LOX IMVI melanoma): 161 nM | TGI (LOX IMVI melanoma): 308 nM | GI50 (SF-539 CNS): 722 nM | TGI (SF-539 CNS): 2040 nM | GI50 (UACC-257 melanoma): 474 nM | TGI (UACC-257 melanoma): 1600 nM | GI50 (OVCAR-5 ovarian): 1420 nM | TGI (OVCAR-5 ovarian): 2760 nM | GI50 (RPMI-8226 leukemia): 702 nM | TGI (RPMI-8226 leukemia): 2080 nM | GI50 (K-562 leukemia): 197 nM | TGI (K-562 leukemia): 437 nM | GI50 (MALME-3M melanoma): 581 nM | TGI (MALME-3M melanoma): 1980 nM | GI50 (ACHN renal): 172 nM | TGI (ACHN renal): 315 nM | GI50 (EKVX NSCLC): 1190 nM | TGI (EKVX NSCLC): 2610 nM | GI50 (BT-549 breast): 327 nM | TGI (BT-549 breast): 1080 nM | GI50 (SK-MEL-2 melanoma): 1600 nM | TGI (SK-MEL-2 melanoma): 3160 nM | GI50 (CAKI-1 renal): 189 nM | TGI (CAKI-1 renal): 429 nM | GI50 (SF-268 CNS): 197 nM | TGI (SF-268 CNS): 458 nM | GI50 (DU-145 prostate): 428 nM | TGI (DU-145 prostate): 1050 nM | GI50 (SNB-19 CNS): 1250 nM | TGI (SNB-19 CNS): 2570 nM | GI50 (A498 renal): 1550 nM | TGI (A498 renal): 3070 nM | GI50 (NCI-H522 lung): 187 nM | TGI (NCI-H522 lung): 443 nM | GI50 (SK-MEL-5 melanoma): 964 nM | TGI (SK-MEL-5 melanoma): 2310 nM | GI50 (SK-MEL-28 melanoma): 1630 nM | TGI (SK-MEL-28 melanoma): 3010 nM | GI50 (NCI-H23 lung): 830 nM | TGI (NCI-H23 lung): 2200 nM | GI50 (OVCAR-3 ovarian): 275 nM | TGI (OVCAR-3 ovarian): 713 nM | GI50 (U251 CNS): 169 nM | TGI (U251 CNS): 315 nM | GI50 (786-0 renal): 406 nM | TGI (786-0 renal): 1460 nM | GI50 (A549 NSCLC): 274 nM | TGI (A549 NSCLC): 764 nM | GI50 (HOP-62 NSCLC): 350 nM | TGI (HOP-62 NSCLC): 820 nM | GI50 (SR leukemia): 208 nM | TGI (SR leukemia): 428 nM | GI50 (UACC-62 melanoma): 1150 nM | TGI (UACC-62 melanoma): 2450 nM | GI50 (HCT-116 colon): 173 nM | TGI (HCT-116 colon): 340 nM | GI50 (SF-295 CNS): 749 nM | TGI (SF-295 CNS): 2070 nM | GI50 (PC-3 prostate): 248 nM | TGI (PC-3 prostate): 716 nM | GI50 (HOP-92 NSCLC): 208 nM | TGI (HOP-92 NSCLC): 1170 nM | GI50 (HS 578T breast): 2120 nM | TGI (HS 578T breast): 6350 nM | GI50 (NCI/ADR-RES ovarian): 271 nM | TGI (NCI/ADR-RES ovarian): 797 nM | GI50 (HCT-15 colon): 264 nM | TGI (HCT-15 colon): 824 nM | GI50 (SW-620 colon): 202 nM | TGI (SW-620 colon): 490 nM | GI50 (CCRF-CEM leukemia): 233 nM | TGI (CCRF-CEM leukemia): 550 nM | GI50 (OVCAR-8 ovarian): 239 nM | TGI (OVCAR-8 ovarian): 597 nM | GI50 (KM12 colon): 389 nM | TGI (KM12 colon): 975 nM | GI50 (SN12C renal): 448 nM | TGI (SN12C renal): 1810 nM | GI50 (UO-31 renal): 156 nM | TGI (UO-31 renal): 303 nM | GI50 (IGROV1 ovarian): 198 nM | TGI (IGROV1 ovarian): 417 nM | GI50 (COLO 205 colon): 217 nM | TGI (COLO 205 colon): 459 nM | GI50 (MDA-MB-231 breast): 490 nM | TGI (MDA-MB-231 breast): 1780 nM | GI50 (MCF7 breast): 261 nM | TGI (MCF7 breast): 738 nM | GI50 (SK-OV-3 ovarian): 1370 nM | TGI (SK-OV-3 ovarian): 2670 nM | GI50 (NCI-H460 lung): 236 nM | TGI (NCI-H460 lung): 588 nM | GI50 (HCC-2998 colon): 675 nM | TGI (HCC-2998 colon): 2000 nM | GI50 (HT29 colon): 172 nM | TGI (HT29 colon): 320 nM | GI50 (M14 melanoma): 388 nM | TGI (M14 melanoma): 1120 nM | GI50 (OVCAR-4 ovarian): 220 nM | TGI (OVCAR-4 ovarian): 534 nM
